Patent US12280023B2, “Fluorophenyl beta-hydroxyethylamines and their use in the treatment of hyperglycaemia” (ATROGI AB, priority 2017, dated 2025)
Where a name gives a salt, the structure may show the parent alone.

Experiments:
L6-myotubes = experiment: Glucose uptake (3H-2-deoxy-glucose) in differentiated L6-myotubes; assay type: cell-based; settings: agonist final concentration 1×10^−5, 50 nM 3H-2-deoxy-glucose, relative to isoproterenol, read-out: Biological example 1: glucose uptake activity compared to that of isoproterenol
Experimental: (§1) L6-myoblasts were grown in Dulbecco's Modified Eagle's Medium (DMEM) containing 4.5 g/l glucose supplemented with 10% fetal bovine serum, 2 mM L-Glutamine, 50 U/ml penicillin, 50 μg/ml streptomycin and 10 mM HEPES. Cells were plated at 1×10^5 cells per ml in 24-well plates. After reaching 90% confluence the cells were grown in medium containing 2% FBS for 7 days where upon cells differentiated into myotubes.
Differentiated L6-myotubes were serum-starved over night in medium containing 0.5% fatty-acid free BSA and stimulated with agonist, final concentration 1×10^−5. After 1 h 40 min cells were washed with warm, glucose free medium or PBS and another portion of agonist was added to glucose free medium. After 20 min the cells were exposed to 50 nM ^3H-2-deoxy-glucose for another 10 min before washed in ice cold glucose free medium or PBS and lysed in 0.2 M NaOH for 1 h in 60° C.

[1] = tested on: Intracellular cAMP levels; experiment: Measurement of intracellular cAMP levels in differentiated L6 cells; assay type: cell-based; settings: Rattus norvegicus, L6, 0.25 h, agonist final concentration 1×10^−5, 15 min, alpha screen cAMP kit, relative to isoproterenol, read-out: Biological example 2: intracellular cAMP activity compared to that of isoproterenol
Experimental: as §1
Differentiated cells were serum-starved over night and stimulated with agonist, final concentration 1×10^−5, for 15 min in stimulation buffer (HBSS supplemented with 1% BSA, 5 mM HEPES and 1 mM IBMX, pH 7.4). The medium was then aspirated and to end the reaction 100 μL of 95% EtOH was added to each well of a 24-well plate and cells were kept in −20° C. over night. The EtOH was let to evaporate and 500 μL of lysis buffer (1% BSA, 5 mM HEPES and 0.3% Tween-20, pH 7.4) was added to each well before put in −80° C. for 30 min and then kept in −20° C. Intracellular cAMP levels were detected using an alpha screen cAMP kit (6760635D from Perkin Elmer). The activity for each compound is compared to that of isoproterenol.

Row | Compound | Emax (L6-myotubes) [%] | Emax [1] [%]
1 | CCCCNCC(O)c1cc(F)cc(F)c1 (centres unmarked) [Example 1, 2-(Butylamino)-1-(3,5-difluorophenyl)ethan-1-ol] | 50 to 75 | < 25
2 | CCCCNCC(O)c1ccc(F)c(F)c1 (centres unmarked) [Example 2, 2-(Butylamino)-1-(3,4-difluorophenyl)ethan-1-ol] | 50 to 75 | < 25
3 | CCCCNC[C@H](O)c1ccc(F)cc1 [Example 3, (R)-2-(Butylamino)-1-(4-fluorophenyl)ethan-1-ol] | 25 to 50 | < 25
4 | CCCCNC[C@H](O)c1cccc(F)c1 [Example 4, (R)-2-(Butylamino)-1-(3-fluorophenyl)ethan-1-ol] | > 75 | < 25
5 | CC(C)(C)NC[C@H](O)c1cccc(F)c1 [Example 5, (R)-2-(tert-Butylamino)-1-(3-fluorophenyl)ethan-1-ol] | > 75 | < 25
6 | CCCCNCC(O)c1cc(F)c(N)c(F)c1 (centres unmarked) [Example 6, 1-(4-Amino-3,5-difluorophenyl)-2-(butylamino)ethan-1-ol] | > 75 | > 75
7 | CCCCNCC(O)c1ccc(F)c(N)c1F (centres unmarked) [Example 7, 1-(3-Amino-2,4-difluorophenyl)-2-(butylamino)ethan-1-ol] | > 75 | < 25
8 | CCCCNCC(O)c1ccc(F)c(NC(C)=O)c1F (centres unmarked) [Example 8, N-(3-(2-(Butylamino)-1-hydroxyethyl)-2,6-difluorophenyl)acetamide] | 25 to 50 | < 25
9 | CCC[C@@H](C)NC[C@H](O)c1ccc(F)cc1 [Example 10, (R)-1-(4-Fluorophenyl)-2-(((R)-pentan-2-yl)amino)ethan-1-ol] | 50 to 75 | < 25
10 | CCC[C@H](C)NC[C@H](O)c1ccc(F)cc1 [Example 11, (R)-1-(4-Fluorophenyl)-2-(((S)-pentan-2-yl)amino)ethan-1-ol] | 25 to 50 | < 25
11 | CCC[C@@H](C)NC[C@H](O)c1cccc(F)c1 [Example 12, (R)-1-(3-fluorophenyl)-2-(((R)-pentan-2-yl)amino)ethan-1-ol] | > 75 | < 25
12 | CCC[C@H](C)NC[C@H](O)c1cccc(F)c1 [Example 13, (R)-1-(3-fluorophenyl)-2-(((S)-pentan-2-yl)amino)ethan-1-ol] | 50 to 75 | < 25
13 | CCCC(C)(C)NC[C@H](O)c1cccc(F)c1 [Example 14, (R)-1-(3-Fluorophenyl)-2-((2-methylpentan-2-yl)amino)ethan-1-ol] | > 75 | < 25
14 | CC(C)(C)NC[C@H](O)c1cccc(F)c1F [Example 15, (R)-2-(tert-Butylamino)-1-(2,3-difluorophenyl)ethan-1-ol] | > 75 | 25 to 50
15 | CCCCNC[C@H](O)c1cccc(F)c1F [Example 16, (R)-2-(Butylamino)-1-(2,3-difluorophenyl)ethan-1-ol] | > 75 | < 25
16 | CC(C)(C)NC[C@H](O)c1ccccc1F [Example 17, (R)-2-(tert-Butylamino)-1-(2-fluorophenyl)ethan-1-ol] | 50 to 75 | < 25

Row | Compound | Emax (L6-myotubes) [%] | Emax [1] [%]
17 | CCCCNC[C@H](O)c1ccccc1F [Example 18, (R)-2-(Butylamino)-1-(2-fluorophenyl)ethan-1-ol] | > 75 | < 25
18 | CC(C)(C)NC[C@H](O)c1ccc(F)cc1O [Example 19, (R)-2-(2-(tert-Butylamino)-1-hydroxyethyl)-5-fluorophenol acetate] | 50 to 75 | < 25
19 | CCCCNC[C@H](O)c1ccc(F)cc1O [Example 20, (R)-2-(2-(Butylamino)-1-hydroxyethyl)-5-fluorophenol acetate] | > 75 | < 25
20 | CC1(NC[C@H](O)c2cccc(F)c2)CCC1 [Example 21, (R)-1-(3-fluorophenyl)-2-((1-methylcyclobutyl)amino)ethan-1-ol] | > 75 | 25 to 50
21 | CC1(NC[C@H](O)c2cccc(F)c2)CC1 [Example 22, (R)-1-(3-fluorophenyl)-2-((1-methylcyclopropyl)amino)ethan-1-ol] | > 75 | < 25
22 | CC(C)(C)NC[C@H](O)c1ccc(F)c(O)c1 [Example 23, (R)-5-(2-(tert-Butylamino)-1-hydroxyethyl)-2-fluorophenol acetate] | > 75 | 50 to 75
23 | CCCCNC[C@H](O)c1ccc(F)c(O)c1 [Example 24, (R)-5-(2-(Butylamino)-1-hydroxyethyl)-2-fluorophenol acetate] | > 75 | < 25
24 | CC(C)(C)NC[C@H](O)c1cccc(O)c1F [Example 25, (R)-3-(2-(tert-Butylamino)-1-hydroxyethyl)-2-fluorophenol] | 50 to 75 | 50 to 75
25 | CCCCNC[C@H](O)c1cccc(O)c1F [Example 26, (R)-3-(2-(Butylamino)-1-hydroxyethyl)-2-fluorophenol] | > 75 | 25 to 50
26 | CC(C)(C)NC[C@H](O)c1cccc(N)c1F [Example 27, (R)-1-(3-Amino-2-fluorophenyl)-2-(tert-butylamino)ethan-1-ol] | > 75 | 25 to 50
27 | CCCCNC[C@H](O)c1cccc(N)c1F [Example 28, (R)-1-(3-Amino-2-fluorophenyl)-2-(butylamino)ethan-1-ol dihydrochloride] | 50 to 75 | < 25
28 | CC(C)(C)CNC[C@H](O)c1cccc(F)c1 [Example 29, (R)-1-(3-Fluorophenyl)-2-(neopentylamino)ethan-1-ol hydrochloride] | 25 to 50 | < 25
29 | O[C@@H](CNC1(C(F)(F)F)CC1)c1cccc(F)c1 [Example 30, (R)-1-(3-fluorophenyl)-2-O-(trifluoromethyl)cyclopropyl)amino)ethan-1-ol hydrochloride] | 50 to 75 | < 25
30 | CC(C)(C)NC[C@H](O)c1ccc(F)c(N)c1F [Example 31, (R)-1-(3-amino-2,4-difluorophenyl)-2-(tert-butylamino)ethan-1-ol hydrochloride] | > 75 | < 25
31 | Cc1c(F)cccc1[C@@H](O)CNC(C)(C)C [Example 32, (R)-2-(tert-butylamino)-1-(3-fluoro-2-methylphenyl)ethan-1-ol] | > 75 | < 25
